These results are taken from ChEMBL document CHEMBL5728513, “Substituted isoindolin-1-ones and 2,3-dihydro-1h-pyrrolo[3,4-c]pyridin-1-ones as hpk1 antagonists” (2021).

Bounds are passed on as bounds.

Sequence of Mitogen-activated protein kinase kinase kinase kinase 1 (Q92918 whole entry): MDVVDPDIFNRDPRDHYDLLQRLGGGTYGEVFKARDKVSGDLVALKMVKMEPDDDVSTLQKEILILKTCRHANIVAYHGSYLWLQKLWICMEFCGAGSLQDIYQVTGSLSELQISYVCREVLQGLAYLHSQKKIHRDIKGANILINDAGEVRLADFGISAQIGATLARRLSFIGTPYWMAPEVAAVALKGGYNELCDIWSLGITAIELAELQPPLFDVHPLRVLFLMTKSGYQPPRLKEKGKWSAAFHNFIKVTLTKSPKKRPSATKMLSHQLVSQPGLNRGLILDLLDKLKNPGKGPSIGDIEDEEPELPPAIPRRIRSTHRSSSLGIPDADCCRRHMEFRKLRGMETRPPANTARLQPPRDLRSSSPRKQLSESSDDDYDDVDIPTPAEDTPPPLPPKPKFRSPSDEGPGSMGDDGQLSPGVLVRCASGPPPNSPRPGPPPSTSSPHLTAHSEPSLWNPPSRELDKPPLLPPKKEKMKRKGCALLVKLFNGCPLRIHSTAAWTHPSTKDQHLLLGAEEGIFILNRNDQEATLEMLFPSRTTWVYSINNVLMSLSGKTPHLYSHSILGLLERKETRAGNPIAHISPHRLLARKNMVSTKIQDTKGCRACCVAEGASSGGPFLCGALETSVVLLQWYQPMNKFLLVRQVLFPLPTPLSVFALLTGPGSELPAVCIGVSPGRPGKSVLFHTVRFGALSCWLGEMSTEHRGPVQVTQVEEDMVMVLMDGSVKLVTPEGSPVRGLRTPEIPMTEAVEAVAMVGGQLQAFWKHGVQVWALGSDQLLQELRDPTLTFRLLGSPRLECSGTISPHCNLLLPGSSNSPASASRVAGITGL

This experiment concerns the target Mitogen-activated protein kinase kinase kinase kinase 1 (Homo sapiens, UniProt Q92918). The experiment is described as follows: Biochemical Enzyme Assay: HPK1 biochemical enzyme assay: HPK1 enzyme inhibition was measured using a microfluidic mobility shift assay. […] Test compounds were titrated in ten point curves (top final assay concentration […]), and preincubated with enzyme/substrate mix for 30 min prior to initiation of the reaction by addition of ATP (1 mM final concentration) and substrate (1 Î¼M final concentration; Carna Biosciences) diluted in assay buffer supplemented by MgCl2 (final assay concentration of 5 mM). Following 60 min incubation at RT, the reaction was terminated by addition of 60 µl/well termination buffer (Carna Biosciences) and signal determination using a Caliper EZ Reader (Perkin Elmer, UK).
As for `CN(C)Cc1cc(Nc2ccc(-c3cnc4cc(F)ccn34)c3c2C(=O)NC3)ncc1C1(O)CCOCC1`, the IC50 entry was “in the range around 550 nM”.

On to `CCN(C)Cc1nc(Nc2ccc(-c3cnc4cc(F)ccn34)c3c2C(=O)NC3)ccc1[C@@H]1CCOC1`, for which the IC50 is less than 100 nM.

Take `CO[C@H]1CCC(c2ccc(Nc3ccc(-c4cnc5cc(F)ccn45)c4c3C(=O)NC4)nc2CN(C)C)C1` (stereo partly drawn): the IC50 is less than 100 nM.

For orientation: IC50 means the concentration that gives 50% inhibition.
